System in one test: not listed separately
In words: Cytotoxicity against human HCT8 cells assessed as growth inhibition rate at 0.1 to 100 umol/L after 96 hrs by MTT assay. The class given is functional, HCT-8.
Conditions: not given
For orientation: Formazan colour is commonly taken as a measure of viable cells.
`CCCCCCCCCCCc1c2[n+](cc3c4c(ccc13)OCO4)CCc1cc3c(cc1-2)OCO3.[Cl-]`: the “growth inhibition (GI)” value worked out at 92.7%.

Consider `Fc1cccc(Cc2c3[n+](cc4c5c(ccc24)OCO5)CCc2cc4c(cc2-3)OCO4)c1.[Cl-]`, for which the “growth inhibition (GI)” value worked out at 4.59%.

As for `Fc1ccccc1Cc1c2[n+](cc3c4c(ccc13)OCO4)CCc1cc3c(cc1-2)OCO3.[Cl-]`, the “growth inhibition (GI)” value stood at 26.26%.

As to `Fc1ccc(Cc2c3[n+](cc4c5c(ccc24)OCO5)CCc2cc4c(cc2-3)OCO4)c(F)c1.[Cl-]`, the “growth inhibition (GI)” value stood at 1.19%.

In the case of `FC(F)(F)c1cccc(Cc2c3[n+](cc4c5c(ccc24)OCO5)CCc2cc4c(cc2-3)OCO4)c1.[Cl-]`, the “growth inhibition (GI)” value is reported as -1.37%.

`FC(F)(F)c1cc(Cc2c3[n+](cc4c5c(ccc24)OCO5)CCc2cc4c(cc2-3)OCO4)cc(C(F)(F)F)c1.[Cl-]`: the “growth inhibition (GI)” value is given as -5.72%.

System in another test: not listed separately
In words: Cytotoxicity against human HCT8 cells assessed as growth inhibition rate after 96 hrs by MTT assay. It counts as functional, cell-based. As to conditions: HCT-8, 96 h.
As a reminder, the IC50 is the concentration that inhibits the measured activity by half. Take `CCCCCCCCCCCc1c2[n+](cc3c4c(ccc13)OCO4)CCc1cc3c(cc1-2)OCO3.[Cl-]`: the IC50 amounted to 0.82 µM.

For the compound `Fc1cccc(Cc2c3[n+](cc4c5c(ccc24)OCO5)CCc2cc4c(cc2-3)OCO4)c1.[Cl-]`, the IC50 was greater than 10 µM.

Regarding `Fc1ccccc1Cc1c2[n+](cc3c4c(ccc13)OCO4)CCc1cc3c(cc1-2)OCO3.[Cl-]`, the IC50 is greater than 10 µM.

On to `Fc1ccc(Cc2c3[n+](cc4c5c(ccc24)OCO5)CCc2cc4c(cc2-3)OCO4)c(F)c1.[Cl-]`, for which the IC50 is greater than 10 µM.

Consider `FC(F)(F)c1cccc(Cc2c3[n+](cc4c5c(ccc24)OCO5)CCc2cc4c(cc2-3)OCO4)c1.[Cl-]`, for which the IC50 is greater than 10 µM.

On to `FC(F)(F)c1cc(Cc2c3[n+](cc4c5c(ccc24)OCO5)CCc2cc4c(cc2-3)OCO4)cc(C(F)(F)F)c1.[Cl-]`, for which the IC50 was greater than 10 µM.

In another test the test system is A549. As to the kind of experiment: Cytotoxicity against human A549 cells assessed as growth inhibition rate at 0.1 to 100 umol/L after 96 hrs by MTT assay. It counts as functional.
Conditions: not given
As for `CCCCCCCCCCCc1c2[n+](cc3c4c(ccc13)OCO4)CCc1cc3c(cc1-2)OCO3.[Cl-]`, the “growth inhibition (GI)” value is 94.28%.

`Fc1cccc(Cc2c3[n+](cc4c5c(ccc24)OCO5)CCc2cc4c(cc2-3)OCO4)c1.[Cl-]`: the “growth inhibition (GI)” value came out at 6.81%.

For `Fc1ccccc1Cc1c2[n+](cc3c4c(ccc13)OCO4)CCc1cc3c(cc1-2)OCO3.[Cl-]`, the “growth inhibition (GI)” value turned out to be 18.8%.

`Fc1ccc(Cc2c3[n+](cc4c5c(ccc24)OCO5)CCc2cc4c(cc2-3)OCO4)c(F)c1.[Cl-]`: the “growth inhibition (GI)” value is listed as 5.86%.

As to `FC(F)(F)c1cccc(Cc2c3[n+](cc4c5c(ccc24)OCO5)CCc2cc4c(cc2-3)OCO4)c1.[Cl-]`, the “growth inhibition (GI)” value was 7.78%.

For `FC(F)(F)c1cc(Cc2c3[n+](cc4c5c(ccc24)OCO5)CCc2cc4c(cc2-3)OCO4)cc(C(F)(F)F)c1.[Cl-]`, the “growth inhibition (GI)” value came to 3.45%.

A further test deals with A549. As to the kind of experiment: Cytotoxicity against human A549 cells assessed as growth inhibition rate after 96 hrs by MTT assay. It counts as functional, cell-based. As to conditions: A549, 96 h.
Regarding `CCCCCCCCCCCc1c2[n+](cc3c4c(ccc13)OCO4)CCc1cc3c(cc1-2)OCO3.[Cl-]`, the IC50 worked out at 0.61 µM.

For the compound `Fc1cccc(Cc2c3[n+](cc4c5c(ccc24)OCO5)CCc2cc4c(cc2-3)OCO4)c1.[Cl-]`, the IC50 is greater than 10 µM.

Take `Fc1ccccc1Cc1c2[n+](cc3c4c(ccc13)OCO4)CCc1cc3c(cc1-2)OCO3.[Cl-]`: the IC50 is greater than 10 µM.

Turning to `Fc1ccc(Cc2c3[n+](cc4c5c(ccc24)OCO5)CCc2cc4c(cc2-3)OCO4)c(F)c1.[Cl-]`, the IC50 was greater than 10 µM.

As for `FC(F)(F)c1cccc(Cc2c3[n+](cc4c5c(ccc24)OCO5)CCc2cc4c(cc2-3)OCO4)c1.[Cl-]`, the IC50 is greater than 10 µM.

Turning to `FC(F)(F)c1cc(Cc2c3[n+](cc4c5c(ccc24)OCO5)CCc2cc4c(cc2-3)OCO4)cc(C(F)(F)F)c1.[Cl-]`, the IC50 was greater than 10 µM.

System in the next test: not listed separately
As to the kind of experiment: Cytotoxicity against human Bel7402 cells assessed as growth inhibition rate at 0.1 to 100 umol/L after 96 hrs by MTT assay.
Conditions: not given
It counts as functional, Bel-7402.
With `CCCCCCCCCCCc1c2[n+](cc3c4c(ccc13)OCO4)CCc1cc3c(cc1-2)OCO3.[Cl-]`, the “growth inhibition (GI)” value is recorded as 91.22%.

On to `Fc1cccc(Cc2c3[n+](cc4c5c(ccc24)OCO5)CCc2cc4c(cc2-3)OCO4)c1.[Cl-]`, for which the “growth inhibition (GI)” value is given as 4.06%.

As to `Fc1ccccc1Cc1c2[n+](cc3c4c(ccc13)OCO4)CCc1cc3c(cc1-2)OCO3.[Cl-]`, the “growth inhibition (GI)” value is 6.94%.

For the compound `Fc1ccc(Cc2c3[n+](cc4c5c(ccc24)OCO5)CCc2cc4c(cc2-3)OCO4)c(F)c1.[Cl-]`, the “growth inhibition (GI)” value came out at 5.45%.

Regarding `FC(F)(F)c1cccc(Cc2c3[n+](cc4c5c(ccc24)OCO5)CCc2cc4c(cc2-3)OCO4)c1.[Cl-]`, the “growth inhibition (GI)” value is given as 5.98%.

`FC(F)(F)c1cc(Cc2c3[n+](cc4c5c(ccc24)OCO5)CCc2cc4c(cc2-3)OCO4)cc(C(F)(F)F)c1.[Cl-]`: the “growth inhibition (GI)” value worked out at 3.61%.

System in another test: not listed separately
As to the kind of experiment: Cytotoxicity against human Bel7402 cells assessed as growth inhibition rate after 96 hrs by MTT assay. The class given is functional, cell-based. The note with it: Bel-7402, 96 h.
Take `CCCCCCCCCCCc1c2[n+](cc3c4c(ccc13)OCO4)CCc1cc3c(cc1-2)OCO3.[Cl-]`: the IC50 is 1.22 µM.

Take `Fc1cccc(Cc2c3[n+](cc4c5c(ccc24)OCO5)CCc2cc4c(cc2-3)OCO4)c1.[Cl-]`: the IC50 was greater than 10 µM.

`Fc1ccccc1Cc1c2[n+](cc3c4c(ccc13)OCO4)CCc1cc3c(cc1-2)OCO3.[Cl-]`: the IC50 is greater than 10 µM.

Consider `Fc1ccc(Cc2c3[n+](cc4c5c(ccc24)OCO5)CCc2cc4c(cc2-3)OCO4)c(F)c1.[Cl-]`, for which the half-maximal inhibitory concentration (IC50) is greater than 10 µM.

In the case of `FC(F)(F)c1cccc(Cc2c3[n+](cc4c5c(ccc24)OCO5)CCc2cc4c(cc2-3)OCO4)c1.[Cl-]`, the IC50 was greater than 10 µM.

Take `FC(F)(F)c1cc(Cc2c3[n+](cc4c5c(ccc24)OCO5)CCc2cc4c(cc2-3)OCO4)cc(C(F)(F)F)c1.[Cl-]`: the IC50 was greater than 10 µM.

System in a further test: not listed separately
As to the kind of experiment: Cytotoxicity against human C33A cells assessed as growth inhibition rate at 0.1 to 100 umol/L after 96 hrs by MTT assay. The class given is functional, C-33-A.
Conditions: not given
Consider `CCCCCCCCCCCc1c2[n+](cc3c4c(ccc13)OCO4)CCc1cc3c(cc1-2)OCO3.[Cl-]`, for which the “growth inhibition (GI)” value was found to be 86.84%.

System in another test: not listed separately
As to the kind of experiment: Cytotoxicity against human C33A cells assessed as growth inhibition rate after 96 hrs by MTT assay. It counts as functional, cell-based. As to conditions: C-33-A.
In the case of `CCCCCCCCCCCc1c2[n+](cc3c4c(ccc13)OCO4)CCc1cc3c(cc1-2)OCO3.[Cl-]`, the IC50 came to 1.57 µM.

System in another test: not listed separately
As to the kind of experiment: Cytotoxicity against human BGC823 cells assessed as growth inhibition rate after 96 hrs by MTT assay. The class given is functional, cell-based. As to conditions: BGC-823, 96 h.
As to `Fc1cccc(Cc2c3[n+](cc4c5c(ccc24)OCO5)CCc2cc4c(cc2-3)OCO4)c1.[Cl-]`, the IC50 was greater than 10 µM.

On to `Fc1ccccc1Cc1c2[n+](cc3c4c(ccc13)OCO4)CCc1cc3c(cc1-2)OCO3.[Cl-]`, for which the IC50 is greater than 10 µM.

`Fc1ccc(Cc2c3[n+](cc4c5c(ccc24)OCO5)CCc2cc4c(cc2-3)OCO4)c(F)c1.[Cl-]`: the IC50 is greater than 10 µM.

`FC(F)(F)c1cccc(Cc2c3[n+](cc4c5c(ccc24)OCO5)CCc2cc4c(cc2-3)OCO4)c1.[Cl-]`: the IC50 was greater than 10 µM.

On to `FC(F)(F)c1cc(Cc2c3[n+](cc4c5c(ccc24)OCO5)CCc2cc4c(cc2-3)OCO4)cc(C(F)(F)F)c1.[Cl-]`, for which the IC50 was greater than 10 µM.

The next test relates to HCT-8. In words: Ratio of 5-fluorouracil IC50 to compound IC50 for human HCT8 cells assessed as growth inhibition rate after 96 hrs by MTT assay. The class given is functional.
Conditions: not given
Take `CCCCCCCCCCCc1c2[n+](cc3c4c(ccc13)OCO4)CCc1cc3c(cc1-2)OCO3.[Cl-]`: the “Ratio IC50” value came out at 4.

The test system of the next test is A549. As to the kind of experiment: Ratio of 5-fluorouracil IC50 to compound IC50 for human A549 cells assessed as growth inhibition rate after 96 hrs by MTT assay. It counts as functional.
Conditions: not given
As for `CCCCCCCCCCCc1c2[n+](cc3c4c(ccc13)OCO4)CCc1cc3c(cc1-2)OCO3.[Cl-]`, the “Ratio IC50” value worked out at 11.

Another test relates to Bel-7402. As to the kind of experiment: Ratio of 5-fluorouracil IC50 to compound IC50 for human Bel7402 cells assessed as growth inhibition rate after 96 hrs by MTT assay. It counts as functional.
Conditions: not given
In the case of `CCCCCCCCCCCc1c2[n+](cc3c4c(ccc13)OCO4)CCc1cc3c(cc1-2)OCO3.[Cl-]`, the “Ratio IC50” value is 2.

A further test has as its system C-33-A. In words: Ratio of 5-fluorouracil IC50 to compound IC50 for human C33A cells assessed as growth inhibition rate after 96 hrs by MTT assay.
Conditions: not given
The class given is functional.
As to `CCCCCCCCCCCc1c2[n+](cc3c4c(ccc13)OCO4)CCc1cc3c(cc1-2)OCO3.[Cl-]`, the “Ratio IC50” value stood at 3.

The values are drawn from ChEMBL document CHEMBL3352350, “Syntheses and structure-activity relationships in cytotoxicities of 13-substituted quaternary coptisine derivatives” (Eur J Med Chem, 2014).
